PubChem BioAssay AID1259407 (Chemical Carcinogenesis Research Information System (CCRIS), 2018)
The source made the active and inactive calls. No rule for the calls is given here.

Test system: CCRIS mutagenicity, Ames/micronucleus/aberration tests
Assay: CCRIS mutagenicity studies
[1] = Test System: AMES SALMONELLA TYPHIMURIUM, Strain/Indicator: TA98, Metabolic Activation: NONE, Method: PREINCUBATION
[2] = Test System: AMES SALMONELLA TYPHIMURIUM, Strain/Indicator: TA100, Metabolic Activation: NONE, Method: PREINCUBATION
[3] = Test System: AMES SALMONELLA TYPHIMURIUM, Strain/Indicator: TA1537, Metabolic Activation: NONE, Method: PREINCUBATION
[4] = Test System: E. COLI, Strain/Indicator: WP2 UVRA, Metabolic Activation: NONE, Method: PREINCUBATION

CC1OC1C (centres undefined)
mutagenic call (Test System: AMES SALMONELLA TYPHIMURIUM, Strain/Indicator: TA97, Metabolic Activation: HAMSTER, LIVER, S-9, AROCLOR 1254 (30%), Method: PREINCUBATION): inactive; negative
mutagenic call (Test System: AMES SALMONELLA TYPHIMURIUM, Strain/Indicator: TA97, Metabolic Activation: NONE, Method: PREINCUBATION): inactive; negative
mutagenic call (Test System: AMES SALMONELLA TYPHIMURIUM, Strain/Indicator: TA97, Metabolic Activation: RAT, LIVER, S-9, AROCLOR 1254 (30%), Method: PREINCUBATION): inactive; negative
mutagenic call (Test System: AMES SALMONELLA TYPHIMURIUM, Strain/Indicator: TA98, Metabolic Activation: HAMSTER, LIVER, S-9, AROCLOR 1254 (30%), Method: PREINCUBATION): inactive; negative
mutagenic call [1]: inactive; negative
mutagenic call (Test System: AMES SALMONELLA TYPHIMURIUM, Strain/Indicator: TA98, Metabolic Activation: RAT, LIVER, S-9, AROCLOR 1254 (30%), Method: PREINCUBATION): inactive; negative
mutagenic call (Test System: AMES SALMONELLA TYPHIMURIUM, Strain/Indicator: TA100, Metabolic Activation: HAMSTER, LIVER, S-9, AROCLOR 1254 (30%), Method: PREINCUBATION): inactive; negative
mutagenic call [2]: inactive; negative
mutagenic call (Test System: AMES SALMONELLA TYPHIMURIUM, Strain/Indicator: TA100, Metabolic Activation: RAT, LIVER, S-9, AROCLOR 1254 (30%), Method: PREINCUBATION): inactive; negative
mutagenic call (Test System: AMES SALMONELLA TYPHIMURIUM, Strain/Indicator: TA1535, Metabolic Activation: HAMSTER, LIVER, S-9, AROCLOR 1254 (30%), Method: PREINCUBATION): active; positive
mutagenic call (Test System: AMES SALMONELLA TYPHIMURIUM, Strain/Indicator: TA1535, Metabolic Activation: RAT, LIVER, S-9, AROCLOR 1254 (30%), Method: PREINCUBATION): active; positive
mutagenic call (Test System: AMES SALMONELLA TYPHIMURIUM, Strain/Indicator: TA1537, Metabolic Activation: HAMSTER, LIVER, S-9, AROCLOR 1254 (30%), Method: PREINCUBATION): inactive; negative
mutagenic call [3]: inactive; negative
mutagenic call (Test System: AMES SALMONELLA TYPHIMURIUM, Strain/Indicator: TA1537, Metabolic Activation: RAT, LIVER, S-9, AROCLOR 1254 (30%), Method: PREINCUBATION): inactive; negative

CN(C)CCNC(=O)c1cccc2c1ncc1ccccc12
mutagenic call (Test System: AMES SALMONELLA TYPHIMURIUM, Strain/Indicator: TA1537, Metabolic Activation: NONE, Method: STANDARD PLATE): active; positive

c1ccc([Se][Se]c2ccccc2)cc1
mutagenic call (Test System: AMES SALMONELLA TYPHIMURIUM, Strain/Indicator: TA97A, Metabolic Activation: NONE, Method: PREINCUBATION): active; positive
mutagenic call (Test System: AMES SALMONELLA TYPHIMURIUM, Strain/Indicator: TA102, Metabolic Activation: NONE, Method: PREINCUBATION): inactive; negative

O=CC1CO1 (centres undefined)
mutagenic call (Test System: AMES SALMONELLA TYPHIMURIUM, Strain/Indicator: TA100, Metabolic Activation: NONE, Method: STANDARD PLATE): active; positive
mutagenic call (Test System: AMES SALMONELLA TYPHIMURIUM, Strain/Indicator: TA1535, Metabolic Activation: NONE, Method: STANDARD PLATE): active; positive
mutagenic call (Test System: E. COLI, Strain/Indicator: WP2 UVRA, Metabolic Activation: HAMSTER, LIVER, S-9, AROCLOR 1254, Method: PREINCUBATION): active; positive
mutagenic call (Test System: E. COLI, Strain/Indicator: WP2 UVRA, Metabolic Activation: HAMSTER, LIVER, S-9, AROCLOR 1254, Method: STANDARD PLATE): active; positive
mutagenic call (Test System: E. COLI, Strain/Indicator: WP2 UVRA, Metabolic Activation: HAMSTER, LIVER, S-9, Method: PREINCUBATION): active; positive
mutagenic call (Test System: E. COLI, Strain/Indicator: WP2 UVRA, Metabolic Activation: HAMSTER, LIVER, S-9, Method: STANDARD PLATE): active; positive
mutagenic call (Test System: E. COLI, Strain/Indicator: WP2 UVRA, Metabolic Activation: MOUSE, LIVER, S-9, AROCLOR 1254, Method: PREINCUBATION): active; positive
mutagenic call (Test System: E. COLI, Strain/Indicator: WP2 UVRA, Metabolic Activation: MOUSE, LIVER, S-9, AROCLOR 1254, Method: STANDARD PLATE): active; positive
mutagenic call (Test System: E. COLI, Strain/Indicator: WP2 UVRA, Metabolic Activation: MOUSE, LIVER, S-9, Method: PREINCUBATION): active; positive
mutagenic call (Test System: E. COLI, Strain/Indicator: WP2 UVRA, Metabolic Activation: MOUSE, LIVER, S-9, Method: STANDARD PLATE): active; positive
mutagenic call [4]: active; positive
mutagenic call (Test System: E. COLI, Strain/Indicator: WP2 UVRA, Metabolic Activation: NONE, Method: STANDARD PLATE): active; positive
mutagenic call (Test System: E. COLI, Strain/Indicator: WP2 UVRA, Metabolic Activation: RAT, LIVER, S-9, AROCLOR 1254, Method: PREINCUBATION): active; positive
mutagenic call (Test System: E. COLI, Strain/Indicator: WP2 UVRA, Metabolic Activation: RAT, LIVER, S-9, AROCLOR 1254, Method: STANDARD PLATE): active; positive
mutagenic call (Test System: E. COLI, Strain/Indicator: WP2 UVRA, Metabolic Activation: RAT, LIVER, S-9, Method: PREINCUBATION): active; positive
mutagenic call (Test System: E. COLI, Strain/Indicator: WP2 UVRA, Metabolic Activation: RAT, LIVER, S-9, Method: STANDARD PLATE): active; positive
mutagenic call (Test System: UDS HUMAN FIBROBLASTS, Strain/Indicator: THY INCORP (NON-S-PHASE), Metabolic Activation: NONE, Method: LIQUID SCINTILLATION COUNTING): active; positive

CCCCCCCCCCCCCCCCCC(=O)NCCNC(=O)CCCCCCCCCCCCCCCCC
mutagenic call [1]: inactive; negative
mutagenic call (Test System: AMES SALMONELLA TYPHIMURIUM, Strain/Indicator: TA98, Metabolic Activation: RAT LIVER S-9, PHENOBARBITAL AND BETA-NAPHTHOFLAVONE, Method: PREINCUBATION): inactive; negative
mutagenic call (Test System: AMES SALMONELLA TYPHIMURIUM, Strain/Indicator: TA98, Metabolic Activation: RAT, LIVER, S-9, KC 500, Method: PREINCUBATION): inactive; negative
mutagenic call [2]: inactive; negative
mutagenic call (Test System: AMES SALMONELLA TYPHIMURIUM, Strain/Indicator: TA100, Metabolic Activation: RAT LIVER S-9, PHENOBARBITAL AND BETA-NAPHTHOFLAVONE, Method: PREINCUBATION): inactive; negative
mutagenic call (Test System: AMES SALMONELLA TYPHIMURIUM, Strain/Indicator: TA100, Metabolic Activation: RAT, LIVER, S-9, KC 500, Method: PREINCUBATION): inactive; negative
mutagenic call (Test System: AMES SALMONELLA TYPHIMURIUM, Strain/Indicator: TA1535, Metabolic Activation: NONE, Method: PREINCUBATION): inactive; negative
mutagenic call (Test System: AMES SALMONELLA TYPHIMURIUM, Strain/Indicator: TA1535, Metabolic Activation: RAT LIVER S-9, PHENOBARBITAL AND BETA-NAPHTHOFLAVONE, Method: PREINCUBATION): inactive; negative
mutagenic call (Test System: AMES SALMONELLA TYPHIMURIUM, Strain/Indicator: TA1535, Metabolic Activation: RAT, LIVER, S-9, KC 500, Method: PREINCUBATION): inactive; negative
mutagenic call [3]: inactive; negative
mutagenic call (Test System: AMES SALMONELLA TYPHIMURIUM, Strain/Indicator: TA1537, Metabolic Activation: RAT LIVER S-9, PHENOBARBITAL AND BETA-NAPHTHOFLAVONE, Method: PREINCUBATION): inactive; negative
mutagenic call (Test System: AMES SALMONELLA TYPHIMURIUM, Strain/Indicator: TA1537, Metabolic Activation: RAT, LIVER, S-9, KC 500, Method: PREINCUBATION): inactive; negative
mutagenic call (Test System: AMES SALMONELLA TYPHIMURIUM, Strain/Indicator: TA1538, Metabolic Activation: NONE, Method: PREINCUBATION): inactive; negative
mutagenic call (Test System: AMES SALMONELLA TYPHIMURIUM, Strain/Indicator: TA1538, Metabolic Activation: RAT, LIVER, S-9, KC 500, Method: PREINCUBATION): inactive; negative
mutagenic call [4]: inactive; negative
mutagenic call (Test System: E. COLI, Strain/Indicator: WP2 UVRA, Metabolic Activation: RAT, LIVER, S-9, KC 500, Method: PREINCUBATION): inactive; negative
mutagenic call (Test System: E.COLI, Strain/Indicator: WP2UVRA/PKM101, Metabolic Activation: NONE, Method: PREINCUBATION): inactive; negative
mutagenic call (Test System: E.COLI, Strain/Indicator: WP2UVRA/PKM101, Metabolic Activation: RAT LIVER S-9, PHENOBARBITAL AND BETA-NAPHTHOFLAVONE, Method: PREINCUBATION): inactive; negative

Nc1c(S(=O)(=O)O)cc2cc(S(=O)(=O)O)ccc2c1N=Nc1ccc(-c2ccc(N=Nc3c(N)c(S(=O)(=O)O)cc4cc(S(=O)(=O)O)ccc34)c(Cl)c2)cc1Cl
mutagenic call (Test System: AMES SALMONELLA TYPHIMURIUM, Strain/Indicator: TA1538, Metabolic Activation: HAMSTER, LIVER, S-9, Method: STANDARD PLATE): inactive; negative
mutagenic call (Test System: AMES SALMONELLA TYPHIMURIUM, Strain/Indicator: TA1538, Metabolic Activation: RAT, LIVER, S-9, AROCLOR 1254, Method: STANDARD PLATE): inactive; negative
